Series [1] has as its system neogenesis of tumor vessels induced by the transplanted mouse tumor S180. Kind of series: Inhibitory Effect on Vascularization Using the Mouse Back Subcutaneous Transplantation Method. Format: in vivo, male ICR mouse. As to conditions: for Vascularization score: oral 100 mg/kg, 5 days, mean ± SE. The method, then: The inhibitory effect of Compounds 1 and 3 in accordance with the present invention on the neogenesis of tumor vessels induced by the transplanted mouse tumor S180 was tested using the mouse back subcutaneous transplantation method. Specifically, 1×10^7 S180 cells were injected into a chamber formed by attaching a Millipore filter having a pore size of 0.45 μm to either side of a Millipore ring. After the injection hole was stopped up, this chamber was transplanted into an air sac formed beneath the skin of the back of a male ICR mouse (9-10 weeks old). Starting from the day of transplantation, a test compound or a solvent control comprising a 0.5% carboxymethylcellulose solution was orally administered for 5 days. After the skin was separated on the fifth day of transplantation, an O-ring of 10 mm internal diameter having the same shape as the Millipore ring was placed on the part of the skin which had been in contact with the chamber, observed under a stereoscopic microscope, and photographed.
In the photographs so taken, the degree of vascularization was rated 0, 1, 2 or 3 according to the number of 3 mm or longer tortuous blood vessels characteristic of tumoral vessels, and scored on the following basis.
0: No tumoral vessel was observed.
1: One tumoral vessel was observed.
2: Two tumoral vessels were observed.
3: Three or more tumoral vessels were observed.

On the set-up of series [2]: species or system DBA/1J mice. As to conditions: mouse, in vivo, po, 100 mg/kg. The method, then: (§1) Among the compounds in accordance with the present invention, each of Compounds 1, 2 and 3 was orally or intraperitoneally administered to eight DBA/1J mice in a dose of 100 mg/kg body weight. […] This seems to indicate that the compounds used in the present invention have no or very little, if any, acute toxicity. Moreover, Compound 1, in a dose of 100 mg/kg body weight, or Compound 3, in a dose of 30 mg/kg body weight, was orally administered to eight mice of the aforesaid strain for 40 days. […] Thus, the compounds of the present invention have little subacute toxicity. Since other compounds in accordance with the present invention are estimated to have similar properties, the compounds of the present invention can be used very safely.

The nature of the next series: Acute toxicity in mice. Format: in vivo, DBA/1J mice. The settings on record: 100 mg/kg; for evidence of toxicity, single administration: mouse, in vivo; for mortality, single administration: oral or intraperitoneal, eight DBA/1J mice. The method, then:
as §1

The test system of series [3] is collagen-induced arthritis. Kind of series: Inhibitory Effect on Collagen-Induced Arthritis (No. 1), sole thickness. Format: in vivo, DBA/1J mice. As to conditions: mean ± SD. The method, then:
(§2) The preventive effect on the onset of collagen-induced arthritis was tested by using DBA/1J mice in groups of 5-8. Specifically, type II collagen was mixed with an equal volume of Freund's complete adjuvant and emulsified to prepare a 1 mg/ml emulsion. Mice were sensitized by administering 0.1 ml of this emulsion intracutaneously to the root of the tail. After 21 days, the mice were additionally immunized by emulsifying type II collagen in the same manner as before and administering 0.1 ml of the emulsion intraperitoneally so as to induce arthritis.
Starting from the day of the first sensitization with type II collagen, Compound 1 was orally administered, once a day, for 43 days in a dose of 10 or 30 mg/kg body weight. Similarly, each of Compounds 2 and 3 was intraperitoneally administered, once a day, for 43 days in a dose of 1 or 10 mg/kg body weight. Their inhibitory effect on collagen-induced arthritis was evaluated by measuring the sole thicknesses of the hind legs periodically with digital vernier calipers.

For another series, the system named is carrageenin edema. Kind of series: Effect on Carrageenin Edema. The series is classed as in vivo, ICR mice. The method, then:
The effect on carrageenin edema was tested by using ICR mice in groups of 6-7. Specifically, Compound 3 was orally administered thereto in a dose of 3 or 30 mg/kg body weight. As a positive control drug, indomethacin was similarly administered in a dose of 20 mg/kg body weight. After 30 minutes, 25 μl of a 1% carrageenin solution was subcutaneously injected into the sole of the right hind leg. Two hours after the administration of carrageenin, the thickness of the sole was measured with digital vernier calipers, and the degree of edema (%) based on the thickness measured before administration was calculated.

Series [4] in a line: Levels of Orally Administered Test Compounds in Blood Plasma. The series is classed as in vivo, male ICR mice. The method, then:
Each of Compound 3 and MI43 was orally administered to fasted male ICR mice (weighing 18-21 g) in a dose of 25 mg/kg. Blood samples were collected from the mice 5 minutes, 30 minutes, 4 hours, 8 hours and 24 hours after administration (3 mice per point for Compound 3 and 5 mice per point for MI43). These blood samples were centrifuged to obtain blood plasma samples. Each of the blood plasma samples was subjected to the following pretreatment and then analyzed by high-performance liquid chromatography (HPLC). 1.8 ml of a saturated aqueous solution of ammonium sulfate and 1.0 ml of methanol were added to and mixed with 0.2 ml of the blood plasma sample. This mixture was shaken with 3.5 ml of ethyl acetate. After this mixture was centrifuged, the ethyl acetate layer was separated. Moreover, the aqueous layer was shaken with 3.5 ml of ethyl acetate, followed by centrifugation. The ethyl acetate layer thus obtained was combined with the previously separated ethyl acetate layer, and this mixture was evaporated to dryness under reduced pressure. The resulting residue was redissolved in 0.2 ml of a 50% aqueous solution of acetonitrile and used as a sample for HPLC.
The analytical conditions for HPLC (using the CCTD system manufactured by Toso Co., Ltd.) were as follows: A YMC A-312 column (ODS 6×150 mm; manufactured by YMC Co., Ltd.) was used as the column. As the mobile phase, a 60:40 mixture of acetonitrile and 0.1% aqueous TFA was used for Compound 3, and a 40:60 mixture of acetonitrile and 0.1% aqueous TFA was used for MI43. The rest compound was eluted at a flow velocity of 1.0 ml/min and detected by UV light at 244 nm.

Series [5] deals with collagen-induced arthritis. Briefly: Inhibitory Effect on Collagen-Induced Arthritis (No. 2), arthritis score. Format: in vivo, DBA/1J mice. The settings on record: oral. On the procedure:
as §2
Animals having arthritis induced in the same manner as described above were used in groups of 7-8. Compound 3 was orally administered, once a day, for 21 days following the additional immunization in a dose of 1, 3 or 10 mg/kg body weight. For comparative purposes, MI43 was similarly administered to another group in a dose of 30 mg/kg body weight. According to the degree of rubor, swelling and rigidity in each of the forelegs and hind legs of the experimental animals, their inhibitory effect on collagen-induced arthritis was evaluated on the following basis by a score ranging from 0 to 4 (with a maximum value of 16).
0: No symptom is observed.
2: Two or more small joints, or a relatively large joint such as that of the wrist or ankle, show rubor or swelling.
4: The total swelling of the hand or foot reaches its peak and, moreover, is accompanied by joint rigidity.

For series [6], the system named is collagen-induced arthritis. As to conditions: oral administration, mice; cited from earlier work.
The next series has as its system adjuvant arthritis. The settings on record: oral administration, rats; cited from earlier work.
Series [7] deals with various animal cells and human cancer cells. The settings on record: cited from earlier work.

For the molecule `COc1cc(O)c2c(=O)oc(C(=O)O)cc2c1` [Compound 1, 8-hydroxy-6-methoxy-1-oxo-1H-2-benzopyran-3-carboxylic Acid], the Vascularization score in series [1] (n = 9, p < 0.05 vs control (3.00 ± 0.00), Table 3) is given as 1.67 ± 0.53. The “inhibition of vascularization induced by tumor cell S180 (in words)” value in series [1] (oral, 100 mg/kg body weight) is reported as “significantly inhibited vascularization”. For the same molecule, in [2], the “evidence of toxicity, 40 days” value is on record as “no animal showed evidences of toxicity” and the “mortality, 40 days” value is “No animal died”. Further, in the series “Acute toxicity in mice”, the “evidence of toxicity, single administration” value is “no animal showed evidences of toxicity” and the “mortality, single administration” value is “No animal died”. The “Sole thickness (sum of left and right, mm), after 37 days” value (shortened to “Sole thickness”) in [3] (oral, 10 mg/kg/day, **p < 0.01 vs control (8.02 ± 0.82)) came out at 6.44 ± 0.40 mm. The “Sole thickness” value in series [3] (oral, 30 mg/kg/day, **p < 0.01 vs control (8.02 ± 0.82)) is reported as 6.12 ± 0.22 mm.

Regarding `COc1ccc2c(c1)c(CC(=O)O)c(C)n2C(=O)c1ccc(Cl)cc1` [Indomethacin, reference compound], the “effect on carrageenin edema (in words)” value in the series on carrageenin edema (20 mg/kg) is reported as “significan inhibitory effect”. Further, the “Degree of edema (%)” value with carrageenin edema (oral 20 mg/kg, 2 h after carrageenin, mean ± SE, **p < 0.01 vs control (47.4 ± 2.8)) is reported as 18.5 ± 3.5%.

For the molecule `COc1cc(O)c2c(=O)oc(CO)cc2c1` [MI43, 3-hydroxymethyl-6-methoxy-8-hydroxy-1H-2-benzopyran-1-one, reference compound], the Vascularization score in [1] (n = 11, control 2.93 ± 0.07, Table 4) is listed as 1.09 ± 0.39. Also, in series [4] (mouse, plasma, oral 25 mg/kg, 5 min, read-out: Concentration of unchanged M143 in blood plasma, mean), the concentration at 5 min was found to be 811 ng/mL. Further, the concentration at 0.5 h in [4] (mouse, plasma, oral 25 mg/kg, 30 min, read-out: Concentration of unchanged M143 in blood plasma, mean) was found to be 155 ng/mL. Besides, in series [4] (mouse, plasma, oral 25 mg/kg, 4 hr, read-out: Concentration of unchanged M143 in blood plasma, mean), the concentration at 4 h came out at 48 ng/mL. For the same molecule, the Tmax in series [4] (mouse, plasma, unchanged compound, oral 25 mg/kg, read-out: time of peak / highest plasma level after administration (converted)) was 5 min. In addition, in series [4] (oral 25 mg/kg), the “number of metabolites detected in plasma” value came out at 5. Moreover, in [4] (unchanged MI43, oral 25 mg/kg), the “plasma concentration course after 5 minutes (in words)” value is listed as “decreased sharply”. Moreover, in [5] (30 mg/kg body weight), the “reduction in arthritis score (in words)” value is “no significant reduction in arthritis score”. The “Score after 37 days” value in [5] (30 mg/kg/day, mean ± SE, maximum 16, control 9.25 ± 1.35) turned out to be 5.29 ± 1.77. The “inhibition of collagen-induced arthritis (in words)” value in series [6] was “significantly inhibit adjuvant arthritis in rats and collagen-induced arthritis in mice”. Further, the “inhibition of adjuvant arthritis (in words)” value with adjuvant arthritis is reported as “significantly inhibit adjuvant arthritis in rats”. For the same molecule, in series [7], the “growth-inhibiting activity (in words)” value is “growth-inhibiting activity against various animal cells and human cancer cells”.

Regarding `COc1cc(O)c2c(=O)oc(CC(=O)O)cc2c1` [Compound 2, (8-hydroxy-6-methoxy-1-oxo-1H-2-benzopyran-3-yl)acetic Acid], in the series “Acute toxicity in mice”, the “evidence of toxicity, single administration” value is recorded as “no animal showed evidences of toxicity” and the “mortality, single administration” value was “No animal died”. Besides, in series [3] (intraperitoneal, 1 mg/kg/day, *p < 0.05 vs control (8.02 ± 0.82)), the “Sole thickness” value was 6.81 ± 1.07 mm. Besides, the “Sole thickness” value in series [3] (intraperitoneal, 10 mg/kg/day, *p < 0.05 vs control (8.02 ± 0.82)) is on record as 7.19 ± 0.40 mm.

The values are drawn from US6020363A, “Isocoumarin derivatives and use thereof in drugs” (Mercian Corporation, priority 1998, dated 2000).
